From PubChem BioAssay (NCI)
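GI50: concentration for 50% inhibition of growth. TGI denotes the concentration required for complete inhibition of growth.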

Key:
Assay in all cases: inhibition of tumour cell growth, NCI panel, 384-well format
DU-145 prostate = tested on: DU-145 prostate
NCI-H460 NSCLC = tested on: NCI-H460 NSCLC
MDA-MB-231 breast = tested on: MDA-MB-231 breast
BT-549 breast = tested on: BT-549 breast
NCI/ADR-RES ovarian = tested on: NCI/ADR-RES ovarian
HCT-116 colon = tested on: HCT-116 colon
NCI-H322M lung = tested on: NCI-H322M lung
SK-MEL-5 melanoma = tested on: SK-MEL-5 melanoma
786-0 renal = tested on: 786-0 renal
NCI-H23 lung = tested on: NCI-H23 lung
SK-MEL-28 melanoma = tested on: SK-MEL-28 melanoma
HS 578T breast = tested on: HS 578T breast
TK-10 renal = tested on: TK-10 renal
HT29 colon = tested on: HT29 colon
HL-60(TB) leukemia = tested on: HL-60(TB) leukemia
OVCAR-8 ovarian = tested on: OVCAR-8 ovarian
IGROV1 ovarian = tested on: IGROV1 ovarian
SF-268 CNS = tested on: SF-268 CNS
HCT-15 colon = tested on: HCT-15 colon
SF-295 CNS = tested on: SF-295 CNS
PC-3 prostate = tested on: PC-3 prostate
SK-OV-3 ovarian = tested on: SK-OV-3 ovarian
SR leukemia = tested on: SR leukemia
SF-539 CNS = tested on: SF-539 CNS
OVCAR-4 ovarian = tested on: OVCAR-4 ovarian
COLO 205 colon = tested on: COLO 205 colon
OVCAR-5 ovarian = tested on: OVCAR-5 ovarian
SNB-75 CNS = tested on: SNB-75 CNS
UO-31 renal = tested on: UO-31 renal
OVCAR-3 ovarian = tested on: OVCAR-3 ovarian
SNB-19 CNS = tested on: SNB-19 CNS
MDA-MB-468 breast = tested on: MDA-MB-468 breast
EKVX NSCLC = tested on: EKVX NSCLC
RPMI-8226 leukemia = tested on: RPMI-8226 leukemia
NCI-H226 lung = tested on: NCI-H226 lung
T-47D breast = tested on: T-47D breast
K-562 leukemia = tested on: K-562 leukemia
A498 renal = tested on: A498 renal
RXF 393 renal = tested on: RXF 393 renal
U251 glioblastoma = tested on: U251 glioblastoma
MOLT-4 leukemia = tested on: MOLT-4 leukemia
CAKI-1 renal = tested on: CAKI-1 renal
HOP-62 NSCLC = tested on: HOP-62 NSCLC
CCRF-CEM leukemia = tested on: CCRF-CEM leukemia
ACHN renal = tested on: ACHN renal
HCC-2998 colon = tested on: HCC-2998 colon
MDA-MB-435 melanoma = tested on: MDA-MB-435 melanoma
UACC-257 melanoma = tested on: UACC-257 melanoma
MCF7 breast = tested on: MCF7 breast
HOP-92 NSCLC = tested on: HOP-92 NSCLC
MALME-3M melanoma = tested on: MALME-3M melanoma
A549 NSCLC = tested on: A549 NSCLC
M14 melanoma = tested on: M14 melanoma
SN12C renal = tested on: SN12C renal
SW-620 colon = tested on: SW-620 colon
KM12 colon = tested on: KM12 colon
NCI-H522 lung = tested on: NCI-H522 lung

In the case of `CS(=O)c1ccc(-c2nc(-c3ccc(F)cc3)c(-c3ccncc3)[nH]2)cc1` (centres undefined), the GI50 (DU-145 prostate) is reported as 30.4 µM, the TGI (DU-145 prostate) is reported as 93.2 µM and the GI50 (NCI-H460 NSCLC) is reported as 27.8 µM. It also gave a TGI (NCI-H460 NSCLC) of 64.1 µM, a GI50 (MDA-MB-231 breast) of 35.6 µM and a TGI (MDA-MB-231 breast) greater than 100 µM. It also gave a GI50 (BT-549 breast) of 41.7 µM, a TGI (BT-549 breast) greater than 100 µM and a GI50 (NCI/ADR-RES ovarian) of 98.1 µM. The TGI (NCI/ADR-RES ovarian) was greater than 100 µM, the GI50 (HCT-116 colon) was 23.3 µM and the TGI (HCT-116 colon) was 50.9 µM. It also gave a GI50 (NCI-H322M lung) of 37.5 µM, a TGI (NCI-H322M lung) of 96.2 µM and a GI50 (SK-MEL-5 melanoma) of 14.7 µM. For the same molecule, the TGI (SK-MEL-5 melanoma) was 28.4 µM, the GI50 ([…]-0 renal) was 17.8 µM and the TGI (786-0 renal) was 36.5 µM. It also gave a GI50 (NCI-H23 lung) of 26.7 µM, a TGI (NCI-H23 lung) of 52.6 µM and a GI50 (SK-MEL-28 melanoma) of 12.1 µM. The TGI (SK-MEL-28 melanoma) was 25.6 µM, the GI50 (HS 578T breast) was 20.7 µM and the TGI (HS 578T breast) was 39 µM. For the same molecule, the GI50 (TK-10 renal) was 16.8 µM, the TGI (TK-10 renal) was 37.4 µM and the GI50 (HT29 colon) was 11.1 µM. It also gave a TGI (HT29 colon) of 24 µM, a GI50 (HL-60(TB) leukemia) of 16.4 µM and a TGI (HL-60(TB) leukemia) of 30.3 µM. For the same molecule, the GI50 (OVCAR-8 ovarian) was 24 µM, the TGI (OVCAR-8 ovarian) was 90.4 µM and the GI50 (IGROV1 ovarian) was 13.9 µM. It also gave a TGI (IGROV1 ovarian) of 28.9 µM, a GI50 (SF-268 CNS) of 43.4 µM and a TGI (SF-268 CNS) greater than 100 µM. The GI50 (HCT-15 colon) was 18.4 µM, the TGI (HCT-15 colon) was 37.1 µM and the GI50 (SF-295 CNS) was 20.1 µM. The TGI (SF-295 CNS) was 35.1 µM, the GI50 (PC-3 prostate) was 40.3 µM and the TGI (PC-3 prostate) was greater than 100 µM. For the same molecule, the GI50 (SK-OV-3 ovarian) was 22.7 µM, the TGI (SK-OV-3 ovarian) was 58.2 µM and the GI50 (SR leukemia) was 13.1 µM. It also gave a TGI (SR leukemia) of 26.4 µM, a GI50 (SF-539 CNS) of 29.5 µM and a TGI (SF-539 CNS) of 71.6 µM. The GI50 (OVCAR-4 ovarian) was 38.2 µM, the TGI (OVCAR-4 ovarian) was 93.8 µM and the GI50 (COLO 205 colon) was 11.8 µM. It also gave a TGI (COLO 205 colon) of 24.5 µM, a GI50 (OVCAR-5 ovarian) of 40.4 µM and a TGI (OVCAR-5 ovarian) greater than 100 µM. For the same molecule, the GI50 (SNB-75 CNS) was 44.2 µM, the TGI (SNB-75 CNS) was greater than 100 µM and the GI50 (UO-31 renal) was 21.4 µM. It also gave a TGI (UO-31 renal) of 69.9 µM, a GI50 (OVCAR-3 ovarian) of 29.3 µM and a TGI (OVCAR-3 ovarian) of 68.8 µM. The GI50 (SNB-19 CNS) was 56.8 µM, the TGI (SNB-19 CNS) was greater than 100 µM and the GI50 (MDA-MB-468 breast) was 10.5 µM. It also gave a TGI (MDA-MB-468 breast) of 29.2 µM, a GI50 (EKVX NSCLC) of 32.6 µM and a TGI (EKVX NSCLC) greater than 100 µM. It also gave a GI50 (RPMI-8226 leukemia) of 23.6 µM, a TGI (RPMI-8226 leukemia) of 40.3 µM and a GI50 (NCI-H226 lung) of 19.9 µM. For the same molecule, the TGI (NCI-H226 lung) was 34.4 µM, the GI50 (T-47D breast) was 27.4 µM and the TGI (T-47D breast) was 83.9 µM. The GI50 (K-562 leukemia) was 27.8 µM, the TGI (K-562 leukemia) was greater than 100 µM and the GI50 (A498 renal) was 16.7 µM. The TGI (A498 renal) was 55.2 µM, the GI50 (RXF 393 renal) was 17.8 µM and the TGI (RXF 393 renal) was 33.5 µM. It also gave a GI50 (U251 glioblastoma) of 27.8 µM, a TGI (U251 glioblastoma) of 62.4 µM and a GI50 (MOLT-4 leukemia) of 25.1 µM. For the same molecule, the TGI (MOLT-4 leukemia) was 62.2 µM, the GI50 (CAKI-1 renal) was 22.2 µM and the TGI (CAKI-1 renal) was 88.4 µM. The GI50 (HOP-62 NSCLC) was 23 µM, the TGI (HOP-62 NSCLC) was 50.1 µM and the GI50 (CCRF-CEM leukemia) was 17.7 µM. For the same molecule, the TGI (CCRF-CEM leukemia) was 42.8 µM, the GI50 (ACHN renal) was 19 µM and the TGI (ACHN renal) was 65.1 µM. The GI50 (HCC-2998 colon) was 23.2 µM, the TGI (HCC-2998 colon) was 38.7 µM and the GI50 (MDA-MB-435 melanoma) was 33.2 µM. The TGI (MDA-MB-435 melanoma) was greater than 100 µM, the GI50 (UACC-257 melanoma) was 15.3 µM and the TGI (UACC-257 melanoma) was 30 µM. The GI50 (MCF7 breast) was 26.8 µM, the TGI (MCF7 breast) was 90.7 µM and the GI50 (HOP-92 NSCLC) was 34.8 µM. For the same molecule, the TGI (HOP-92 NSCLC) was greater than 100 µM, the GI50 (MALME-3M melanoma) was 11.9 µM and the TGI (MALME-3M melanoma) was 28.1 µM. The GI50 (A549 NSCLC) was 38.9 µM, the TGI (A549 NSCLC) was greater than 100 µM and the GI50 (M14 melanoma) was 6.96 µM. For the same molecule, the TGI (M14 melanoma) was 29.4 µM, the GI50 (SN12C renal) was 48.5 µM and the TGI (SN12C renal) was greater than 100 µM. It also gave a GI50 (SW-620 colon) of 31.5 µM, a TGI (SW-620 colon) of 49.2 µM and a GI50 (KM12 colon) of 27.4 µM. For the same molecule, the TGI (KM12 colon) was 62.3 µM, the GI50 (NCI-H522 lung) was 14.8 µM and the TGI (NCI-H522 lung) was 35.2 µM.
